This is an account of results in US20160052926A1, “NOVEL PYRIMIDINE AND PYRIDINE COMPOUNDS AND USAGE THEREOF” (HUTCHISON MEDIPHARMA LIMITED, priority 2013, published 2016).

One assay deals with Recombinant human FGFR1 (Homo sapiens, UniProt P11362). Briefly: Transcreener Kinase Assay of FGFR1. The format is biochemical. To be noted: read-out: FGFR1 (FP) IC50.
For another assay, the target named is Recombinant human FGFR2 (Homo sapiens, UniProt P21802). Briefly: Transcreener Kinase Assay of FGFR2. The format is biochemical. The conditions noted are these: read-out: FGFR2 (FP) IC50.
Recombinant human FGFR2, sequence (P21802 22-821): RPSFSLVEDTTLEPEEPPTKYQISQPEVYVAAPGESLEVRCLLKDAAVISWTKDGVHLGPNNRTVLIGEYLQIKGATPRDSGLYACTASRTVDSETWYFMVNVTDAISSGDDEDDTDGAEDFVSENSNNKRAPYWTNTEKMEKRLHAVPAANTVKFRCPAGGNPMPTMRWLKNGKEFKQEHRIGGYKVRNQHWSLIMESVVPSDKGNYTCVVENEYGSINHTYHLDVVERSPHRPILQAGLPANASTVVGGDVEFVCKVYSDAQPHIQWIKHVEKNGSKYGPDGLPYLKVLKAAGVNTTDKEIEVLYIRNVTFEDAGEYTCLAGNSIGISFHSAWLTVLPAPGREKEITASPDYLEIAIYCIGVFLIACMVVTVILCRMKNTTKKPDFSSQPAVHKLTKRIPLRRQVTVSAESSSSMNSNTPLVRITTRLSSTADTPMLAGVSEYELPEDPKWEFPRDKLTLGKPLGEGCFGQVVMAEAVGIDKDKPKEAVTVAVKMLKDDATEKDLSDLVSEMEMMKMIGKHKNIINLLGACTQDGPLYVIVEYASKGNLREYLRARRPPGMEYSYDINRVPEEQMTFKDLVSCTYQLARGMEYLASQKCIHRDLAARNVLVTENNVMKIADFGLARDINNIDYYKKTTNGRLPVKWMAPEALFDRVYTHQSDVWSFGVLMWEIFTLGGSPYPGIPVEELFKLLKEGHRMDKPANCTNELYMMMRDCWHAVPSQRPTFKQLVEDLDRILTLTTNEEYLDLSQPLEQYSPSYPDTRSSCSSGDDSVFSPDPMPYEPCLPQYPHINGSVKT
Another assay deals with FGFR3 kinase (Homo sapiens, UniProt P22607). Briefly: Z-Lyte Kinase Assay of FGFR3. Format: biochemical. The gist of the method:
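FRET peptide-cleavage format: 1 h kinase reaction at RT (25-30[…]), then 1 h protease development, then stop and dual-emission read (Ex400, Em445/520 nm). Working solutions: kinase 0.7 μg/ml, Tyr 4 peptide 4 μM, ATP 300 uM in 1.33× buffer; eight compound concentrations from 1 μM, 2% DMSO final.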

The subject of the next assay is KG-1. Briefly: Cellular Proliferation Assay (Cell Counting Kit-8), KG-1. The format is cell-based. The conditions noted are these: Homo sapiens, KG1 cells, 72 hours. The gist of the method: (§1)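 Proliferation was read as OD at 450 nm after 1 h with CCK-8, following 72 h drug exposure at 37 °C, 5% CO2. Inhibition was calculated against cells in 0.5% DMSO minus medium blank, and the 50% point reported. The compound series (10–0.004 μM, pre-addition, in 5% DMSO) was added one day after plating KG-1, SNU-16 and RT-112 at 30,000, 5,000 and 1,000 cells/well respectively.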

In a further assay the test system is SNU-16. Put plainly: Cellular Proliferation Assay (Cell Counting Kit-8), SNU-16. The format is cell-based. To be noted: Homo sapiens, SNU-16 cells, 72 hours. In short, it runs like this:
as §1

For the next assay, the system named is RT-112. Briefly: Cellular Proliferation Assay (Cell Counting Kit-8), RT-112. The format is cell-based. The conditions noted are these: Homo sapiens, RT-112 cells, 72 hours. The gist of the method:
as §1
A general note: Tetrazolium dyes change colour on reduction, which living cells bring about.

Recombinant human FGFR1, sequence (P11362 22-822): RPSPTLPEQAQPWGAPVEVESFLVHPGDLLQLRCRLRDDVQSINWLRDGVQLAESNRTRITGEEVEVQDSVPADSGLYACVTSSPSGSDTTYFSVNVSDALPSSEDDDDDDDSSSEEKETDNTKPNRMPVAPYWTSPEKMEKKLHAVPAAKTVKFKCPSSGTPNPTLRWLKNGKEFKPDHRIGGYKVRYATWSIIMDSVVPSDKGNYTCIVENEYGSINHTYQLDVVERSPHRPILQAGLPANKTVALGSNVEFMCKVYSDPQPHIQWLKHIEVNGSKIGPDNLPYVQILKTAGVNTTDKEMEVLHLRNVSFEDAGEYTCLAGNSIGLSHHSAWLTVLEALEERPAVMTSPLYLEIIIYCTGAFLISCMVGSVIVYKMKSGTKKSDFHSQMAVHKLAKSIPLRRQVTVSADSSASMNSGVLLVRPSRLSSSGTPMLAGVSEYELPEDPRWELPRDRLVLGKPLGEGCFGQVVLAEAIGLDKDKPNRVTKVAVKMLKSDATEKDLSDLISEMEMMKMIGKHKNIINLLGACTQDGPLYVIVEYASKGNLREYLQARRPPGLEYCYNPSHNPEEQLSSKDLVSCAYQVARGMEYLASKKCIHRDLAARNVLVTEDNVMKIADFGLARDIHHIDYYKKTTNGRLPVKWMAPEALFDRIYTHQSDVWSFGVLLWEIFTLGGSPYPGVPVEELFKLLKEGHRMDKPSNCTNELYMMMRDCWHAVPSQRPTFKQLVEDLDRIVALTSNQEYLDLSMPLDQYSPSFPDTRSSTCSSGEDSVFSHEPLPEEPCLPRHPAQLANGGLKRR
FGFR3 kinase, sequence (P22607 23-806): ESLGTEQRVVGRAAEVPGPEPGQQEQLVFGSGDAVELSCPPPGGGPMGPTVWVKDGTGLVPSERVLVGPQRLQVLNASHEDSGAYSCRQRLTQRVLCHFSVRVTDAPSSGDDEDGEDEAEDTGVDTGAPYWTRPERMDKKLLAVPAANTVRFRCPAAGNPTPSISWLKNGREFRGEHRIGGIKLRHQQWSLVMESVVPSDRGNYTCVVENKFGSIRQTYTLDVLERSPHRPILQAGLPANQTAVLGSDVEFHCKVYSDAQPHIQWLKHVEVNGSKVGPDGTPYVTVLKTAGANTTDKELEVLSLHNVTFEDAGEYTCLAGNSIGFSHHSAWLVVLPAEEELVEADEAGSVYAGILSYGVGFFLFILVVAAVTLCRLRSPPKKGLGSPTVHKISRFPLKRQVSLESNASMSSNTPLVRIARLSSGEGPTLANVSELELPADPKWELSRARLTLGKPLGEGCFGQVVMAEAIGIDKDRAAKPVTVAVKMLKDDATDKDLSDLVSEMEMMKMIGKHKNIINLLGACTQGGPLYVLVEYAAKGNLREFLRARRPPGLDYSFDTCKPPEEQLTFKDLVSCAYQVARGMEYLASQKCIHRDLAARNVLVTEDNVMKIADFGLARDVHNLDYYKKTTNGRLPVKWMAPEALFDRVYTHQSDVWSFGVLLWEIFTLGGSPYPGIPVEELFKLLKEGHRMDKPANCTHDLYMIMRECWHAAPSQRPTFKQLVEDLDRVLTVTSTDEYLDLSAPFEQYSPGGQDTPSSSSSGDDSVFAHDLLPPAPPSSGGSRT

As for `CNC(=O)c1cc(CCc2cnc(Nc3ccc4c(c3)OCO4)nc2)c(F)c(OC)c1` [Compound 31], the IC50 (usually the concentration that inhibits the measured activity by half) was found to be 42 nM at Recombinant human FGFR1; 23 nM at Recombinant human FGFR2; 287 nM on FGFR3 kinase; 178 nM in the assay with KG-1; 236 nM in the assay with SNU-16; 491 nM in the assay on RT-112.
Consider `CNC(=O)c1cc(CCc2cnc(Nc3ccc(CN4CCOCC4)nc3)nc2)c(F)c(OC)c1` [Compound 98], for which the half-inhibitory concentration (IC50) came out at 32 nM on Recombinant human FGFR1; 15 nM at Recombinant human FGFR2; 26 nM against FGFR3 kinase; 48 nM with KG-1; 24 nM in the assay with SNU-16; 225 nM with RT-112.
For `CNC(=O)c1cc(CCc2cnc(Nc3ccc(N4C[C@@H](C)N[C@@H](C)C4)c(F)c3)nc2)c(Cl)c(OC)c1` [Compound 204], the concentration for half-maximal inhibition (IC50) on Recombinant human FGFR1 was determined as 9 nM; on Recombinant human FGFR2 it was 5 nM; against FGFR3 kinase it was 8 nM; in the assay with KG-1, 18 nM; with SNU-16, 7 nM; in the assay with RT-112, 15 nM.
For the molecule `CNC(=O)c1cc(CCc2cnc(Nc3cnn(CCN(C)C)c3)nc2)c(F)c(OC)c1` [Compound 125], the half-maximal inhibitory concentration (IC50) on Recombinant human FGFR1 worked out at 28 nM; on Recombinant human FGFR2 it was 19 nM; at FGFR3 kinase, 20 nM; with KG-1, 30 nM; with SNU-16, 29 nM; with RT-112, 750 nM.
On to `CONC(=O)c1cc(CCc2cnc(Nc3cnn(CCO)c3)nc2)cc(OC)c1` [Compound 108], for which the IC50 worked out at 5 nM at Recombinant human FGFR1; 3 nM at Recombinant human FGFR2; 10 nM on FGFR3 kinase; 110 nM with KG-1; 112 nM in the assay on SNU-16; 562 nM in the assay with RT-112.
Take `CNC(=O)c1cc(CCc2cnc(Nc3cnn(C4CCN(C)CC4)c3)nc2)c(F)c(OC)c1` [Compound 173]: the half-maximal inhibitory concentration (IC50) on Recombinant human FGFR1 came to 8 nM; on Recombinant human FGFR2 it was 7 nM; against FGFR3 kinase it was 28 nM; in the assay on KG-1, 41 nM; with SNU-16, 20 nM; with RT-112 it was 135 nM.
`CNC(=O)c1cc(CCc2cnc(Nc3cnn(C4CCN(C)CC4)c3)nc2)c(Cl)c(OC)c1` [Compound 177]: the IC50 turned out to be 6 nM on Recombinant human FGFR1; 5 nM on Recombinant human FGFR2; 9 nM against FGFR3 kinase; 25 nM in the assay on KG-1; 19 nM in the assay with SNU-16; 86 nM in the assay with RT-112.
Regarding `CNC(=O)c1cc(CCc2cnc(Nc3cnn(C4CCOCC4)c3)nc2)c(F)c(OC)c1` [Compound 132], the concentration for half-maximal inhibition (IC50) was found to be 12 nM at Recombinant human FGFR1; 6 nM on Recombinant human FGFR2; 6 nM on FGFR3 kinase; 20 nM in the assay with KG-1; 10 nM in the assay on SNU-16; 59 nM in the assay on RT-112.
`CNC(=O)c1cc(CCc2cnc(Nc3ccc4nncn4c3)nc2)c(F)c(OC)c1` [Compound 67]: the IC50 at Recombinant human FGFR1 came out at 37 nM; on Recombinant human FGFR2, 27 nM; at FGFR3 kinase, 44 nM; in the assay on KG-1, 89 nM; in the assay with SNU-16, 71 nM; with RT-112, 263 nM.
For the molecule `CCN1CCN(c2ccc(Nc3ncc(/C=C/c4cc(C(=O)NC)cc(OC)c4F)cn3)cc2)CC1` [Compound 87], the IC50 was determined as 10 nM on Recombinant human FGFR1; 10 nM at Recombinant human FGFR2; 36 nM against FGFR3 kinase; 25 nM in the assay on KG-1; 50 nM in the assay with SNU-16; 84 nM in the assay with RT-112.
With `CCn1cc(Nc2ncc(CCc3cc(OC)cc(C(=O)NC)c3F)cn2)cn1` [Compound 27], the IC50 on Recombinant human FGFR1 stood at 256 nM; at Recombinant human FGFR2 it was 42 nM; against FGFR3 kinase, 21 nM; in the assay on KG-1 it was 340 nM; in the assay on SNU-16, 293 nM; in the assay with RT-112, 402 nM.
`CNC(=O)c1cc(CCc2cnc(Nc3nc(C4CC4)cs3)nc2)c(Cl)c(OC)c1` [Compound 71]: the half-inhibitory concentration (IC50) on Recombinant human FGFR1 is 126 nM; on Recombinant human FGFR2, 53 nM; against FGFR3 kinase, 591 nM; in the assay on KG-1, 398 nM; in the assay with SNU-16, 708 nM; in the assay on RT-112 it was 101 nM.
Turning to `CCN1CCN(c2ccc(Nc3ncc(CCc4cc(C(=O)NC)cc(OC)c4F)cn3)cc2)CC1` [Compound 44], the IC50 on Recombinant human FGFR1 is 5 nM; at Recombinant human FGFR2, 4 nM; on FGFR3 kinase, 9 nM; in the assay on KG-1, 9 nM; in the assay on SNU-16 it was 15 nM; in the assay on RT-112 it was 51 nM.
With `CNC(=O)c1cc(COc2cnc(Nc3ccc(N4C[C@@H](C)N[C@@H](C)C4)c(C)c3)nc2)c(Cl)c(OC)c1` [Compound 209], the half-inhibitory concentration (IC50) was determined as 7 nM at Recombinant human FGFR1; 6 nM on Recombinant human FGFR2; 7 nM on FGFR3 kinase; 13 nM in the assay on KG-1; 8 nM with SNU-16; 16 nM in the assay with RT-112.
For the molecule `CCN1CCC(n2cc(Nc3ncc(CCc4cc(C(=O)NC)cc(OC)c4Cl)cn3)cn2)CC1` [Compound 178], the IC50 turned out to be 14 nM at Recombinant human FGFR1; 15 nM at Recombinant human FGFR2; 18 nM at FGFR3 kinase; 72 nM with KG-1; 27 nM in the assay on SNU-16; 186 nM in the assay with RT-112.
Regarding `CCN(CC)CCCn1cc(Nc2ncc(CCc3cc(C(=O)NC)cc(OC)c3Cl)cn2)cn1` [Compound 88], the half-inhibitory concentration (IC50) on Recombinant human FGFR1 was 15 nM; on Recombinant human FGFR2, 6 nM; against FGFR3 kinase, 9 nM; with KG-1, 214 nM; with SNU-16 it was 13 nM; in the assay on RT-112 it was 27 nM.
For `CCN1CCC[C@@H](n2cc(Nc3ncc(CCc4cc(C(=O)NC)cc(OC)c4F)cn3)cn2)C1` [Compound 174], the IC50 at Recombinant human FGFR1 is 10 nM; at Recombinant human FGFR2 it was 6 nM; against FGFR3 kinase, 5 nM; in the assay with KG-1, 40 nM; with SNU-16, 17 nM; in the assay with RT-112, 65 nM.
Turning to `CNC(=O)c1cc(CCc2ccc(Nc3cnn(C)c3)nc2)c(F)c(OC)c1` [Compound 103], the concentration for half-maximal inhibition (IC50) at Recombinant human FGFR1 was 32 nM; at Recombinant human FGFR2, 21 nM; at FGFR3 kinase it was 47 nM; with KG-1, 138 nM; in the assay on SNU-16, 139 nM; in the assay with RT-112 it was 659 nM.
In the case of `CNC(=O)c1cc(CCc2cnc(Nc3cnn(-c4cccnc4)c3)nc2)c(F)c(OC)c1` [Compound 128], the IC50 stood at 20 nM on Recombinant human FGFR1; 10 nM on Recombinant human FGFR2; 14 nM against FGFR3 kinase; 47 nM in the assay with KG-1; 15 nM in the assay with SNU-16; 112 nM with RT-112.
As to `CCn1cc(Nc2ncc(CCc3cc(C(=O)NC)cc(OC)c3C#N)cn2)cn1` [Compound 179, 4-cyano-3-(2-(2-((1-ethyl-1H-pyrazol-4-yl)amino)pyrimidin-5-yl)ethyl)-5-methoxy-N-methylbenzamide], the IC50 on Recombinant human FGFR1 was determined as 69 nM; on Recombinant human FGFR2, 56 nM; on FGFR3 kinase, 91 nM; with KG-1, 284 nM; with SNU-16, 202 nM; in the assay on RT-112, 952 nM.
Consider `CNC(=O)c1cc(CCc2cnc(Nc3ccc(N4CCNCC4)cc3)nc2)c(Cl)c(OC)c1` [Compound 196], for which the IC50 at Recombinant human FGFR1 came out at 6 nM; on Recombinant human FGFR2, 5 nM; at FGFR3 kinase, 9 nM; in the assay on KG-1, 51 nM; in the assay on SNU-16 it was 14 nM; with RT-112 it was 20 nM.
Take `CCN(CC)CCn1cc(Nc2ncc(CCc3cc(C(=O)NC)cc(OC)c3F)cn2)cn1` [Compound 136]: the 50% inhibitory concentration (IC50) on Recombinant human FGFR1 came to 23 nM; at Recombinant human FGFR2 it was 11 nM; against FGFR3 kinase it was 18 nM; in the assay with KG-1 it was 92 nM; in the assay with SNU-16, 25 nM; in the assay on RT-112, 37 nM.
Regarding `CNC(=O)c1cc(CCc2cnc(Nc3cnn([C@@H]4CCN(C)C4)c3)nc2)c(F)c(OC)c1` [Compound 169], the IC50 at Recombinant human FGFR1 is 15 nM; at Recombinant human FGFR2, 14 nM; against FGFR3 kinase it was 15 nM; in the assay with KG-1 it was 17 nM; with SNU-16, 18 nM; in the assay on RT-112, 539 nM.
As for `CNC(=O)c1cc(CCc2cnc(Nc3cnn([C@H]4CCCN(C)C4)c3)nc2)c(F)c(OC)c1` [Compound 172], the IC50 at Recombinant human FGFR1 came to 9 nM; on Recombinant human FGFR2, 6 nM; against FGFR3 kinase it was 6 nM; in the assay on KG-1, 22 nM; in the assay on SNU-16, 14 nM; with RT-112 it was 64 nM.
For the molecule `CNC(=O)c1cc(OC)c(F)c(COc2cnc(Nc3ccc(N4C[C@@H](C)N[C@@H](C)C4)cc3)nc2)c1F` [Compound 199], the half-inhibitory concentration (IC50) at Recombinant human FGFR1 was found to be 13 nM; at Recombinant human FGFR2 it was 7 nM; against FGFR3 kinase, 8 nM; in the assay with KG-1 it was 20 nM; with SNU-16, 18 nM; with RT-112 it was 41 nM.
In the case of `CNC(=O)c1cc(CCc2cnc(Nc3cnn(Cc4ccccn4)c3)nc2)c(F)c(OC)c1` [Compound 142], the IC50 on Recombinant human FGFR1 was determined as 20 nM; at Recombinant human FGFR2 it was 11 nM; against FGFR3 kinase, 28 nM; in the assay with KG-1, 60 nM; in the assay on SNU-16, 28 nM; in the assay on RT-112 it was 208 nM.
As to `CNC(=O)c1cc(CCc2cnc(Nc3cnn(CC(F)(F)F)c3)nc2)c(F)c(OC)c1` [Compound 36], the half-maximal inhibitory concentration (IC50) on Recombinant human FGFR1 was found to be 21 nM; on Recombinant human FGFR2, 616 nM; against FGFR3 kinase, 31 nM; in the assay with KG-1, 52 nM; in the assay on SNU-16 it was 29 nM; with RT-112 it was 160 nM.
